Test system: keratinocytes
Test: Active photoprotection towards UVA-induced oxidative stress on keratinocytes (DCFH-DA fluorescent probe)
Type: cell-based
Conditions: for % of fluorescence relative to the control cells exposed to UVA, TEST 1 / % of fluorescence relative to the control cells exposed to UVA, TEST 2 / % of fluorescence relative to the control cells exposed to UVA, TEST 3 / % of fluorescence relative to the control cells exposed to UVA, Mean: 24 h pre-incubation; for % of fluorescence relative to the control cells exposed to UVA, TEST 1 / % of fluorescence relative to the control cells exposed to UVA, TEST 2 / % of fluorescence relative to the control cells exposed to UVA, TEST 3: DCF fluorescence after UVA; for % of fluorescence relative to the control cells exposed to UVA, Mean: mean of 3 tests
Method: The technique for evaluating the photo-protection is performed according to a well-known method (J. of Photochemistry and Photobiology B: Biology 57 (2000) 102-112 TOBI et al: Glutathione modulates the level of free radicals produced in UVA irradiated cells). This technique uses a fluorescent probe as a marker of the global intracellular oxidative stress, 2′,7′-dichlorofluoresceine diacetate (DCFH-DA).
The use of DCFH-DA as an oxidative stress marker is based on its physicochemical properties. It is a non-ionic apolar molecule capable of diffusing across cell membranes. Once inside the cell, DCFH-DA is hydrolysed by intracellular esterases to a non-fluorescent compound: DCFH or 2,7-dichlorofluoresceine. In the presence of activated oxygen species, DCFH is rapidly oxidized to a highly fluorescent compound: DCF or 2,7-dichlorofluoresceine.
At confluence, the keratinocytes are incubated in the presence of the compound of Example 1 for 24 hours at 37° C., 5% CO2, in the culture medium, according to a dose effect (3 concentrations). • 2. Incorporation of DCFH-DA
The keratinocytes, pretreated with the test compound, are rinsed and then incubated in the presence of DCFH-DA in the dark. • 3. Exposure to UVA
After this incubation, the DCFH-DA solution is removed and the cells are then exposed to UVA.
Comment: an unexposed control plate is kept in darkness at room temperature.
The fluorescence of the DCF is evaluated immediately after the exposure to UVA, by spectro-fluorimetry (excitation: 480 nm; emission: 530 nm). • 5. Results:
The results are expressed in Table 1 below, as a % of fluorescence relative to the control cells exposed to UVA.
The test described in Example 6 above was performed under the same conditions on R-2-oxothiazolidine-4-carboxylic acid (Compound A) and on an alkyl derivative thereof, described in patent U.S. Pat. No. 6,004,543 (Compound B).

Q: `O=C1N[C@H](C(=O)O)CS1` [Compound A, R-2-oxothiazolidine-4-carboxylic acid, reference compound] was tested. Which “Measurement of the intracellular Red/Ox balance: % reduction in the fluorescence of the DCFH probe” value (at 5 mM) did it give?
A: 16% at 5 mM

Q: What does the source list for `C[Si](C)(C)COC(=O)[C@@H]1CSC(=O)N1` [Example 1]?
A: % of fluorescence relative to the control cells exposed to UVA, TEST 1 (100 μM): 95%; % of fluorescence relative to the control cells exposed to UVA, TEST 2 (100 μM): 81%; % of fluorescence relative to the control cells exposed to UVA, TEST 3 (100 μM): 75%; % of fluorescence relative to the control cells exposed to UVA, Mean (100 μM): 84%; % of fluorescence relative to the control cells exposed to UVA, TEST 1 (250 μM): 82%; % of fluorescence relative to the control cells exposed to UVA, TEST 2 (250 μM): 71%; % of fluorescence relative to the control cells exposed to UVA, TEST 3 (250 μM): 70%; % of fluorescence relative to the control cells exposed to UVA, Mean (250 μM): 74%; % of fluorescence relative to the control cells exposed to UVA, TEST 1 (500 μM): 75%; % of fluorescence relative to the control cells exposed to UVA, TEST 2 (500 μM): 70%; % of fluorescence relative to the control cells exposed to UVA, TEST 3 (500 μM): 58%; % of fluorescence relative to the control cells exposed to UVA, Mean (500 μM): 68%; Measurement of the intracellular Red/Ox balance: % reduction in the fluorescence of the DCFH probe (at 500 μM, with dose effect): approximately 32%

Q: How did the “Measurement of the intracellular Red/Ox balance: % reduction in the fluorescence of the DCFH probe” value (at 7 mM, with dose effect) turn out when `CCOC(=O)C1CSC(=O)N1` (stereo not drawn) [Compound B, reference compound] was run?
A: 37% at 7 mM with dose effect

From patent publication US7795286B2 (L'Oreal, priority 2004, dated 2010)
